Measured values from ChEMBL document CHEMBL1201862, “PubChem BioAssay data set” (2004).
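Following 48 hours of exposure in 96-well plates, responses at five concentrations were used to interpolate endpoints linearly. Abbreviation: GI50, concentration required for 50% inhibition of growth.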 Activity calls are given as the source filed them. No stated cut-off is given here; in the data, active = GI50 up to about 1.1 µM and inactive = higher.

What was measured:
Assay in all cases: NCI anticancer screen, dose series, 48 h
NCI-H23 = system: NCI-H23
KM12 = system: KM12
SNB-75 = system: SNB-75
OVCAR-5 = system: OVCAR-5
SF-539 = system: SF-539
SK-OV-3 = system: SK-OV-3
NCI-H522 = system: NCI-H522
HT-29 = system: HT-29
COLO 205 = system: COLO 205
HOP-62 = system: HOP-62
SF-295 = system: SF-295
TK-10 = system: TK-10
UO-31 = system: UO-31
Malme-3M = system: Malme-3M
MDA-MB-231 = system: MDA-MB-231
Hs-578T = system: Hs-578T
A549 = system: A549
T47D = system: T47D
SN12C = system: SN12C
EKVX = system: EKVX
786-0 = system: 786-0
MOLT-4 = system: MOLT-4
PC-3 = system: PC-3
MCF7 = system: MCF7
UACC-257 = system: UACC-257
CCRF-CEM = system: CCRF-CEM
HCC 2998 = system: HCC 2998
UACC-62 = system: UACC-62
HCT-116 = system: HCT-116
DU-145 = system: DU-145
SNB-19 = system: SNB-19
SK-MEL-2 = system: SK-MEL-2
OVCAR-3 = system: OVCAR-3
LOX IMVI = system: LOX IMVI
OVCAR-4 = system: OVCAR-4
RPMI-8226 = system: RPMI-8226
U-251 = system: U-251
NCI-H460 = system: NCI-H460
IGROV-1 = system: IGROV-1
ACHN = system: ACHN
OVCAR-8 = system: OVCAR-8
RXF 393 = system: RXF 393
SW-620 = system: SW-620
NCI/ADR-RES = system: NCI/ADR-RES
SK-MEL-5 = system: SK-MEL-5
CAKI-1 = system: CAKI-1
M14 = system: M14
HCT-15 = system: HCT-15
SK-MEL-28 = system: SK-MEL-28
K562 = system: K562
BT-549 = system: BT-549
MDA-N = system: MDA-N
SF-268 = system: SF-268
HOP-92 = system: HOP-92
MDA-MB-435 = system: MDA-MB-435
SR = system: SR
NCI-H226 = system: NCI-H226
HL-60 = system: HL-60

For `COc1cc(C2SCC(=O)N2c2ccc(NC(=O)c3ccc(N4C(=O)CSC4c4cc(OC)c(OC)c(OC)c4)cc3)cc2)cc(OC)c1OC` (stereo unspecified), the GI50 (NCI-H23) was 49.4 µM (inactive), the GI50 (KM12) was 33 µM (inactive) and the GI50 (SNB-75) was 22.2 µM (inactive). For the same molecule, the GI50 (OVCAR-5) was 95.1 µM (inactive), the GI50 (SF-539) was 42.7 µM (inactive) and the GI50 (SK-OV-3) was > 100 µM (inactive). For the same molecule, the GI50 (NCI-H522) was 40.2 µM (inactive), the GI50 (HT-29) was 93.1 µM (inactive) and the GI50 (COLO 205) was > 100 µM (inactive). The GI50 (HOP-62) was 76.4 µM (inactive), the GI50 (SF-295) was 29.3 µM (inactive) and the GI50 (TK-10) was > 100 µM (inactive). The GI50 (UO-31) was 67.1 µM (inactive), the GI50 (Malme-3M) was 79.1 µM (inactive) and the GI50 (MDA-MB-231) was > 100 µM (inactive). The GI50 (Hs-578T) was 68.1 µM (inactive), the GI50 (A549) was > 100 µM (inactive) and the GI50 (T47D) was 19.8 µM (inactive). The GI50 (SN12C) was > 100 µM (inactive), the GI50 (EKVX) was 57 µM (inactive) and the GI50 (786-0) was 70 µM (inactive). For the same molecule, the GI50 (MOLT-4) was 34.8 µM (inactive), the GI50 (PC-3) was 58.3 µM (inactive) and the GI50 (MCF7) was 43.3 µM (inactive). The GI50 (UACC-257) was 60.5 µM (inactive), the GI50 (CCRF-CEM) was 45.5 µM (inactive) and the GI50 (HCC 2998) was > 100 µM (inactive). For the same molecule, the GI50 (UACC-62) was 24.9 µM (inactive), the GI50 (HCT-116) was 35.1 µM (inactive) and the GI50 (DU-145) was > 100 µM (inactive). The GI50 (SNB-19) was 84.1 µM (inactive), the GI50 (SK-MEL-2) was 91.6 µM (inactive) and the GI50 (OVCAR-3) was 37.1 µM (inactive). The GI50 (LOX IMVI) was 31.8 µM (inactive), the GI50 (OVCAR-4) was 33 µM (inactive) and the GI50 (RPMI-8226) was 28.9 µM (inactive). The GI50 (U-251) was 49.3 µM (inactive), the GI50 (NCI-H460) was > 100 µM (inactive) and the GI50 (IGROV-1) was 32.4 µM (inactive). For the same molecule, the GI50 (ACHN) was 63.7 µM (inactive), the GI50 (OVCAR-8) was 40.3 µM (inactive) and the GI50 (RXF 393) was 58.6 µM (inactive). The GI50 (SW-620) was 36.9 µM (inactive), the GI50 (NCI/ADR-RES) was 25.2 µM (inactive) and the GI50 (SK-MEL-5) was 46.3 µM (inactive). The GI50 (CAKI-1) was > 100 µM (inactive), the GI50 (M14) was 73.1 µM (inactive) and the GI50 (HCT-15) was 38.5 µM. For the same molecule, the GI50 (SK-MEL-28) was 42.5 µM (inactive), the GI50 (K562) was 37.9 µM (inactive) and the GI50 (BT-549) was 56 µM (inactive). The GI50 (MDA-N) was 23.1 µM (inactive), the GI50 (SF-268) was 81.3 µM (inactive) and the GI50 (HOP-92) was 16.4 µM (inactive). For the same molecule, the GI50 (MDA-MB-435) was 20.6 µM (inactive).
In the case of `CN1Cc2cc(O)c(O)cc2C(O)C1` (stereo unspecified), the GI50 (NCI-H23) is reported as > 100 µM (inactive), the GI50 (KM12) is reported as > 100 µM (inactive) and the GI50 (SNB-75) is reported as > 100 µM (inactive). The GI50 (OVCAR-5) was > 100 µM (inactive), the GI50 (SF-539) was > 100 µM (inactive) and the GI50 (SK-OV-3) was > 100 µM (inactive). For the same molecule, the GI50 (NCI-H522) was 49.3 µM (inactive), the GI50 (HT-29) was > 100 µM (inactive) and the GI50 (COLO 205) was > 100 µM (inactive). For the same molecule, the GI50 (HOP-62) was > 100 µM (inactive), the GI50 (SF-295) was > 100 µM (inactive) and the GI50 (TK-10) was > 100 µM (inactive). For the same molecule, the GI50 (UO-31) was 83 µM (inactive), the GI50 (Malme-3M) was > 100 µM (inactive) and the GI50 (MDA-MB-231) was > 100 µM (inactive). The GI50 (Hs-578T) was > 100 µM (inactive), the GI50 (A549) was > 100 µM (inactive) and the GI50 (T47D) was > 100 µM (inactive). The GI50 (SN12C) was > 100 µM (inactive), the GI50 (EKVX) was > 100 µM (inactive) and the GI50 (MOLT-4) was > 100 µM (inactive). The GI50 (PC-3) was > 100 µM (inactive), the GI50 (MCF7) was > 100 µM (inactive) and the GI50 (UACC-257) was > 100 µM (inactive). For the same molecule, the GI50 (CCRF-CEM) was 34.8 µM (inactive), the GI50 (HCC 2998) was > 100 µM (inactive) and the GI50 (UACC-62) was > 100 µM (inactive). For the same molecule, the GI50 (HCT-116) was > 100 µM (inactive), the GI50 (DU-145) was > 100 µM (inactive) and the GI50 (SNB-19) was > 100 µM (inactive). The GI50 (SR) was 1.19 µM (inactive), the GI50 (SK-MEL-2) was > 100 µM (inactive) and the GI50 (OVCAR-3) was > 100 µM (inactive). For the same molecule, the GI50 (LOX IMVI) was 69.2 µM (inactive), the GI50 (OVCAR-4) was > 100 µM (inactive) and the GI50 (RPMI-8226) was > 100 µM (inactive). For the same molecule, the GI50 (NCI-H226) was > 100 µM (inactive), the GI50 (U-251) was > 100 µM (inactive) and the GI50 (NCI-H460) was > 100 µM (inactive). The GI50 (IGROV-1) was > 100 µM (inactive), the GI50 (ACHN) was > 100 µM (inactive) and the GI50 (OVCAR-8) was > 100 µM (inactive). For the same molecule, the GI50 (RXF 393) was > 100 µM (inactive), the GI50 (SW-620) was > 100 µM (inactive) and the GI50 (NCI/ADR-RES) was > 100 µM (inactive). The GI50 (SK-MEL-5) was > 100 µM (inactive), the GI50 (CAKI-1) was > 100 µM (inactive) and the GI50 (M14) was > 100 µM (inactive). The GI50 (HL-60) was 38.3 µM (inactive), the GI50 (SK-MEL-28) was > 100 µM (inactive) and the GI50 (K562) was > 100 µM (inactive). For the same molecule, the GI50 (BT-549) was > 100 µM (inactive), the GI50 (MDA-N) was 55.2 µM (inactive) and the GI50 (SF-268) was > 100 µM (inactive). The GI50 (HOP-92) was > 100 µM (inactive) and the GI50 (MDA-MB-435) was 82.6 µM (inactive).
